# Measured values as given in patent publication US8927504B2, “Combined use of dipeptidyl peptidase 4 inhibitor and sweetener” (Mitsubishi Tanabe Pharma Corporation, priority 2007, dated 2015).
# Columns and labels:
# [1] = tested on: GLP-1; conditions: Shima et al., Acta Endocrinologica 1990; cited from earlier work
# [2] = tested on: active GLP-1 in plasma; test: GLP-1 secretion-stimulating action by combined use of DPP4 inhibitor and sweetener (2), Example 4; type: in vivo, mouse; conditions: 1 hour after dosing, relative to 100 for Compound A′ and fructooligosaccharide 6 g/kg, C57BL/6J mice
# Description: Male C57BL/6J mice (Clea Japan, Inc.) (7-week-old at time of use) were used in the test.
# These study animals were used in the test after first fasting starting on the night prior to the test and then grouping according to body weight. The animals were orally administered test DPP4 inhibitor (or purified water as a control) (10 mL/kg). At 30 minutes after administration, the animals were then orally administered (10 mL/kg) a solution of test sweetener (or purified water as a control) followed by collecting blood samples at 0, 30, 60, 180 and 300 minutes after administration. These samples were then measured for concentrations of active GLP-1 in plasma.
# Measurement of plasma active GLP-1 concentrations and analysis and testing of the measurement results were carried out in the same manner as (1) of Example 1 above.
# Fructooligosaccharide (Meiji Seika Kaisha Ltd.), kestose (Meiji Seika Kaisha Ltd., GF2), raffinose (Wako Pure Chemical Industries, Ltd.), melibiose (Wako Pure Chemical Industries, Ltd.), xylooligosaccharide (Suntory Ltd.), xylose (Wako Pure Chemical Industries, Ltd.), xylitol (Wako Pure Chemical Industries, Ltd.), sorbitol (Wako Pure Chemical Industries, Ltd.), D-mannitol (Wako Pure Chemical Industries, Ltd.), erythritol (Wako Pure Chemical Industries, Ltd.), maltitol (Hayashibara Biochemical Laboratories, Inc.), sucralose (San-Ei Gen F.F.I., Inc.) or acesulfame K (Wako Pure Chemical Industries, Ltd.) was used as sweetener and administered orally (10 mL/kg) at 6 g/kg, 3 g/kg or 1 g/kg.
# In addition, (2S)-2-cyano-1-[trans-4-(dimethylaminocarbonyl)cyclohexylamino]acetylpyrrolidine benzenesulfonate (hereafter referred to as Compound A′) as DPP4 inhibitor (or purified water as a control) was used at 10 mg/kg and administered orally (10 mL/kg).
# Blood active GLP-1 level-increasing action was tested for the cases of combined use of DPP4 inhibitor and each type of sweetener in accordance with the method described in (1) above (n=4 to 5 animals per group).
# Blood active GLP-1 concentrations (1 hour after dosing) in the groups dosed with both each type of sweetener (6 g/kg, 3 g/kg or 1 g/kg) and Compound A′ (10 mg/kg) were represented as relative values with respect to blood active GLP-1 concentrations (1 hour after dosing) in the group dosed with fructooligosaccharide (6 g/kg) and Compound A′.
# [3] = tested on: active GLP-1 in plasma; test: GLP-1 secretion-stimulating action by combined use of DPP4 inhibitor and sweetener (3), Example 5; type: in vivo, mouse; conditions: C57BL/6J mice, mean ± SEM, n = 5
# Description: Purified water was administered orally (10 mL/kg) as a control.
# D-mannitol (Wako Pure Chemical Industries, Ltd.) at 3 g/kg, melibiose (Wako Pure Chemical Industries, Ltd.) at 6 g/kg or acesulfame K (Wako Pure Chemical Industries, Ltd.) at 3 g/kg was used as sweetener and administered orally (10 mL/kg). Purified water was administered orally (10 mL/kg) as a control.
# [4] = Body weight-reducing test using DIO mice (2), Example 6; type: in vivo, mouse; conditions: for Body weight gain after 12 days / Body weight gain after 13 days: high fat diet-fed C57BL/6J mice, mean ± SEM, n = 9; for body weights as compared with the control group / fat mass (g) as compared with the control group / lean mass (g) in comparison with the control group: sweetener 5 w/w % combined with Compound A′ 10 mg/100 g in-feed; for body weights as compared with the control group: each of days 2 to 13 (or day 12) after dosing; for fat mass (g) as compared with the control group / lean mass (g) in comparison with the control group: body composition 15 days after dosing
# Description: Testing was carried out in the same manner as (1) of Example 3 above. High fat diet-fed, male C57BL/6J mice housed until age 14 to 22 weeks were used in the test.
# The study animals were used in the test after first grouping according to body weight and blood sugar level.
# The animals were administered test DPP4 inhibitor and test sweetener in-feed for up to 15 days.
# Body weights and food intake were measured over time after the start of administration of the test substances. Testing and analysis of measurement results were carried out in the same manner as (1) of Example 3 above.
# In addition, in the case body weight reducing effect was observed, body composition was measured in the same manner as (1) of Example 3 above.
# D-mannitol (Wako Pure Chemical Industries, Ltd.), melibiose (Wako Pure Chemical Industries, Ltd.) or acesulfame K (Wako Pure Chemical Industries, Ltd.) was used as sweetener and each was administered in-feed at 5 w/w %. In addition, Compound A′ was administered as DPP4 inhibitor in-feed at 10 mg/100 g.
# Body weight reducing-effect was tested for the cases of combined use of each of these sweeteners and DPP4 inhibitor in accordance with the method described in (1) above (n=9 animals per group).
# [5] = Body weight-reducing test using DIO mice (3), Example 7; type: in vivo, mouse; conditions: for Body weight gain After 8 days / Body weight gain After 15 days: sweetener in feed at 5 w/w % combined with Compound A′ in feed at 10 mg/100 g, high fat diet-fed C57BL/6J mice, mean ± SEM, n = 7
# Description: Testing was carried out in the same manner as (1) of Example 3 above. High fat diet-fed, male C57BL/6J mice housed until age 16 weeks were used in the test.
# The study animals were used in the test after first grouping according to body weight.
# The animals were administered test DPP4 inhibitor and test sweetener in-feed for up to 15 days. Body weights and food intake were measured over time after the start of administration of the test substances.
# Sorbitol (Wako Pure Chemical Industries, Ltd.) or erythritol (Wako Pure Chemical Industries, Ltd.) was used as sweetener and each was administered in-feed at 5 w/w %. In addition, Compound A′ was administered as DPP4 inhibitor in-feed at 10 mg/100 g. Body weight reducing effect was tested for the cases of combined use of each of these sweeteners and DPP4 inhibitor in accordance with the method described in (1) above (n=7 animals per group).
# [6] = sweetener 6 g/kg orally combined with Compound A′ 10 mg/kg orally
# [7] = DPP4 inhibitor 10 mg/kg orally combined with acesulfame K 3 g/kg orally
# [8] = Compound A′ alone in feed at 10 mg/100 g
# [9] = sweetener alone 5 w/w % in-feed
# [10] = sweetener alone in feed at 5 w/w %
# [11] = sweetener in feed at 5 w/w % combined with Compound A′ in feed at 10 mg/100 g
# [12] = sweetener 3 g/kg orally combined with Compound A′ 10 mg/kg orally
# [13] = sweetener 3 g/kg orally alone (purified water instead of DPP4 inhibitor)
# [14] = sweetener 5 w/w % combined with Compound A′ 10 mg/100 g in-feed
# [15] = sweetener alone, separate tests
smiles,measurement,setting,value
O=C[C@H](O)[C@@H](O)[C@@H](O)[C@H](O)CO [D-galactose],blood GLP-1 levels following administration,[1],blood GLP-1 levels are increased
"OC[C@H]1O[C@H](OC[C@H]2O[C@H](O[C@]3(CO)O[C@H](CO)[C@@H](O)[C@@H]3O)[C@H](O)[C@@H](O)[C@@H]2O)[C@H](O)[C@@H](O)[C@H]1O [Raffinose, β-D-fructofuranosyl α-D-galactopyranosyl-(1→6)-α-D-glucopyranoside]",Plasma active GLP-1 concentration (relative value),[2]; [6],77
"CN(C)C(=O)[C@H]1CC[C@H](NCC(=O)N2CCC[C@H]2C#N)CC1.O=S(=O)(O)c1ccccc1 (relative stereo) [Compound A′, (2S)-2-cyano-1-[trans-4-(dimethylaminocarbonyl)cyclohexylamino]acetylpyrrolidine benzenesulfonate]",Increase in AUC of Plasma active GLP-1,[3]; DPP4 inhibitor 10 mg/kg orally combined with D-mannitol 3 g/kg orally,170 ± 27 pM·h
same,Increase in AUC of Plasma active GLP-1,[3]; [7],142 ± 11 pM·h
same,Increase in AUC of Plasma active GLP-1,[3]; DPP4 inhibitor 10 mg/kg orally combined with melibiose 6 g/kg orally,228 ± 32 pM·h
same,body weight as compared with the control group,[4]; Compound A′ alone 10 mg/100 g in-feed,no changes in body weight as compared with the control group
same,Body weight gain after 12 days,[4]; [8],0.6 ± 0.1 g
same,Body weight gain after 13 days,[4]; [8],2.0 ± 0.3 g
"O=C[C@H](O)[C@@H](O)[C@H](O)[C@H](O)CO[C@H]1O[C@H](CO)[C@H](O)[C@H](O)[C@H]1O [Melibiose, α-D-galactopyranosyl-(1→6)-D-glucose]",Plasma active GLP-1 concentration (relative value),[2]; [6],454
same,Increase in AUC of Plasma active GLP-1,[3]; sweetener 6 g/kg orally alone (purified water instead of DPP4 inhibitor),95 ± 2 pM·h
same,body weights as compared with the control group,[4],body weights significantly decreased as compared with the control group
same,body weight as compared with the control group,[4]; [9],no significant differences as compared with the control group
same,Body weight gain after 13 days,[4]; [10],2.2 ± 0.2 g
same,Body weight gain after 13 days,[4]; [11],0.9 ± 0.4 g
OC[C@@H](O)[C@@H](O)[C@H](O)[C@H](O)CO [D-mannitol],Plasma active GLP-1 concentration (relative value),[2]; [12],160
same,Plasma active GLP-1 concentration (relative value),[2]; [6],742
same,Increase in AUC of Plasma active GLP-1,[3]; [13],85 ± 1 pM·h
same,fat mass (g) as compared with the control group,[4],decreased significantly
same,lean mass (g) in comparison with the control group,[4],no change in lean mass
same,body weights as compared with the control group,[4],body weights significantly decreased as compared with the control group
same,body weight as compared with the control group,[4]; [9],no significant differences as compared with the control group
same,Body weight gain after 13 days,[4]; [10],1.1 ± 0.5 g
same,Body weight gain after 13 days,[4]; [11],0.2 ± 0.7 g
"OC[C@@H](O)[C@@H](O)CO [Erythritol, erythritol]",Plasma active GLP-1 concentration (relative value),[2]; [12],147
same,Plasma active GLP-1 concentration (relative value),[2]; [6],461
same,body weights as compared with the control group,[5]; [14],decreases in body weights were observed
same,body weights as compared with the control group,[5]; [15],decreases in body weights were not observed
same,Body weight gain After 8 days,[5],0.2 ± 0.1 g
same,Body weight gain After 15 days,[5],0.9 ± 0.3 g
"CC1=CC(=O)NS(=O)(=O)O1 [Acesulfame K, acesulfame potassium]",Plasma active GLP-1 concentration (relative value),[2]; sweetener 1 g/kg orally combined with Compound A′ 10 mg/kg orally,149
same,Plasma active GLP-1 concentration (relative value),[2]; [12],377
same,Increase in AUC of Plasma active GLP-1,[3]; [13],51 ± 1 pM·h
same,fat mass (g) as compared with the control group,[4],decreased significantly
same,lean mass (g) in comparison with the control group,[4],no change in lean mass
same,body weights as compared with the control group,[4],body weights significantly decreased as compared with the control group
same,body weight as compared with the control group,[4]; [9],no significant differences as compared with the control group
same,Body weight gain after 12 days,[4]; [10],-0.5 ± 0.3 g
same,Body weight gain after 12 days,[4]; [11],-1.0 ± 0.4 g
OC[C@H]1O[C@@](CO)(O[C@H]2O[C@H](CO)[C@@H](O)[C@H](O)[C@H]2O)[C@@H](O)[C@@H]1O [sucrose],blood GLP-1 levels following administration,[1],blood GLP-1 levels are increased
"OC[C@H]1O[C@H](O[C@]2(CCl)O[C@H](CCl)[C@@H](O)[C@@H]2O)[C@H](O)[C@@H](O)[C@H]1Cl [Sucralose, sucralose]",Plasma active GLP-1 concentration (relative value),[2]; [6],166
O=C[C@H](O)[C@@H](O)[C@H](O)[C@H](O)CO [D-glucose],blood GLP-1 levels following administration,[1],blood GLP-1 levels are increased
"CCC(=O)N1CCN(C2CCC(C)(NCC(=O)N3CCC[C@H]3C#N)CC2)CC1 (stereo partly drawn) [Compound B, (2S)-2-cyano-1-[t-4-(4-propionyl-1-piperazinyl)-1-methyl-r-1-cyclohexylamino]acetyl pyrrolidine]",Increase in AUC of Plasma active GLP-1,[3]; [7],153 ± 14 pM·h
"OC[C@@H](O)[C@@H](O)[C@H](O)[C@@H](O)CO [Sorbitol, sorbitol]",Plasma active GLP-1 concentration (relative value),[2]; [12],286
same,Plasma active GLP-1 concentration (relative value),[2]; [6],863
same,body weights as compared with the control group,[5]; [14],decreases in body weights were observed
same,body weights as compared with the control group,[5]; [15],decreases in body weights were not observed
same,Body weight gain After 8 days,[5],-0.7 ± 0.4 g
same,Body weight gain After 15 days,[5],0.8 ± 0.3 g
OC[C@H]1O[C@H](O[C@H]2[C@H](O)[C@@H](O)C(O)O[C@@H]2CO)[C@H](O)[C@@H](O)[C@@H]1O (mixture of isomers) [maltose],blood GLP-1 levels following administration,[1],blood GLP-1 levels are increased
"OC[C@H]1O[C@@](CO)(OC[C@@]2(O[C@H]3O[C@H](CO)[C@@H](O)[C@H](O)[C@H]3O)O[C@H](CO)[C@@H](O)[C@@H]2O)[C@@H](O)[C@@H]1O [Kestose, glucose-1,2-fructose-1,2-fructose]",Plasma active GLP-1 concentration (relative value),[2]; [6],166
